For 64 molecules, protein melting temperature results are on record in the supplement of paper PMC7806825.

For this data set, the system named is McpC ligand-binding domain (Salmonella Typhimurium SL1344). Put plainly: protein melting temperature (Tm) in presence of compound (degrees C); higher = more thermal stabilisation (possible ligand binding). The following applies: compound stock concentration: 10-20 mM, 2 uL in 10 uL reaction.

Take `C=C(OP(=O)(O)O)C(=O)O` [Phosphoenol Pyruvate]: the protein melting temperature (Biolog plate: PM04A) was found to be 43.9.

`C[N+](C)(C)CCOP(=O)(O)O` [Phosphoryl Choline]: where the note is “Biolog plate: PM04A”, the protein melting temperature is 43.7.

Consider `Nc1ccn([C@H]2C[C@H](O)[C@@H](CO)O2)c(=O)n1` [2`-Deoxycytidine], for which the protein melting temperature (Biolog plate: PM05) is 44.3.

In the case of `NC(=O)C[C@H](N)C(=O)O` [L-Asparagine], the protein melting temperature by setting is: (Biolog plate: PM01) 44.4; (Biolog plate: PM03B) 45.7; (Biolog plate: PM05) 44.5.

Consider `Cc1ncc(C[n+]2csc(CCOP(=O)(O)OP(=O)(O)O)c2C)c(N)n1` [Thiamine Pyrophosphate], for which the protein melting temperature (Biolog plate: PM05) worked out at 43.7.

For the molecule `C[C@H](N)C(=O)O` [L-Alanine], the protein melting temperature came out at 44.8 (Biolog plate: PM01), 45.6 (Biolog plate: PM03B) and 44.9 (Biolog plate: PM05).

`CCSCCC(N)C(=O)O` (racemic) [DL-Ethionine]: the protein melting temperature (Biolog plate: PM04A) amounted to 43.9.

On to `CC[C@H](C)[C@H](N)C(=O)O` [L-Isoleucine], for which the protein melting temperature reads like this: (Biolog plate: PM02A) 44.3; (Biolog plate: PM03B) 44.8; (Biolog plate: PM05) 44.7.

For `NCCP(=O)(O)O` [2-Aminoethyl Phosphonic acid], the protein melting temperature (Biolog plate: PM04A) is 43.6.

Take `C[C@H](N)C(=O)NCC(=O)O` [Ala-Gly]: the protein melting temperature amounted to 44.9 (Biolog plate: PM01) and 45.2 (Biolog plate: PM03B).

As to `O=C(O)CCCC[C@@H]1SC[C@@H]2NC(=O)N[C@@H]21` [D-Biotin], the protein melting temperature (Biolog plate: PM05) was determined as 44.5.

Take `OC[C@H]1O[C@@H](O[C@@H]2[C@@H](CO)OC(O)(CO)[C@H]2O)[C@H](O)[C@@H](O)[C@H]1O` (mixture of isomers) [Lactulose]: under “Biolog plate: PM01”, the protein melting temperature was 44.9.

Regarding `O=C(O)/C=C/C(=O)O` [Fumaric acid], for the setting “Biolog plate: PM01”, the protein melting temperature amounted to 44.6.

On to `Nc1nc2c(ncn2[C@@H]2O[C@H](CO)[C@@H](OP(=O)(O)O)[C@H]2O)c(=O)[nH]1` [Guanosine 3`-Monophosphate], for which the protein melting temperature (Biolog plate: PM04A) came out at 43.9.

Regarding `C[N+](C)(C)CC(O)CC(=O)[O-]` (racemic) [DL-Carnitine], the protein melting temperature (Biolog plate: PM05) was determined as 43.7.

`Nc1ccn([C@@H]2O[C@H](CO)[C@@H](O)[C@H]2OP(=O)(O)O)c(=O)n1` [Cytidine 2`-Monophosphate]: where the note is “Biolog plate: PM04A”, the protein melting temperature is 43.7.

Regarding `CC(O)C(N)=O` (racemic) [DL-Lactamide], under “Biolog plate: PM03B”, the protein melting temperature was determined as 45.6.

For the molecule `N#C[C@H](O[C@@H]1O[C@H](CO[C@@H]2O[C@H](CO)[C@@H](O)[C@H](O)[C@H]2O)[C@@H](O)[C@H](O)[C@H]1O)c1ccccc1` [Amygdalin], the protein melting temperature (Biolog plate: PM02A) was determined as 44.3.

With `CC(C)C[C@H](N)C(=O)O` [L-Leucine], the protein melting temperature runs as follows: (Biolog plate: PM02A) 44.3; (Biolog plate: PM03B) 44.8; (Biolog plate: PM05) 44.6.

For the molecule `CC(=O)N[C@H]1[C@H]([C@H](O)[C@H](O)CO)OC(O)(C(=O)O)C[C@@H]1O` (stereo partly specified) [N-Acetyl-Neuraminic acid], the protein melting temperature (Biolog plate: PM02A) is 44.4.

For the molecule `CC(=O)N[C@@H](CO)[C@@H](O)[C@H](O)[C@H](O)CO` [N-Acetyl-D-Glucosaminitol], the protein melting temperature (Biolog plate: PM02A) worked out at 44.1.

`OC[C@H]1OC(O)[C@H](O)[C@@H](O)[C@H]1O` (stereo partly drawn) [D-Galactose]: the protein melting temperature (Biolog plate: PM01) worked out at 44.8.

Take `O=P1(O)OP(=O)(O)OP(=O)(O)O1` [Trimetaphosphate]: under “Biolog plate: PM04A”, the protein melting temperature was 44.7.

On to `CC[C@H](O)C(=O)O` [a-Hydroxybutyric acid], for which the protein melting temperature by setting is: (Biolog plate: PM01) 44.6; (Biolog plate: PM05) 43.7.

For `O=C(O)CC(Br)C(=O)O` (stereo unspecified) [Bromosuccinic acid], under “Biolog plate: PM01”, the protein melting temperature turned out to be 44.8.

Turning to `Nc1ncnc2c1ncn2[C@@H]1O[C@H](COP(=O)(O)O)[C@@H](O)[C@H]1O` [Adenosine 5`-Monophosphate], the protein melting temperature (Biolog plate: PM04A) was 43.9.

Turning to `NCCc1ccccc1` [b-Phenylethylamine], the protein melting temperature (Biolog plate: PM03B) was determined as 44.6.

Take `NCC(=O)O` [Glycine]: the protein melting temperature was determined as 44.4 (Biolog plate: PM02A), 44.8 (Biolog plate: PM03B) and 43.9 (Biolog plate: PM05).

In the case of `Nc1ncnc2c1ncn2[C@@H]1O[C@H](CO)[C@@H](O)[C@H]1O` [Adenosine], the protein melting temperature (Biolog plate: PM01) amounted to 43.8, the protein melting temperature (Biolog plate: PM03B) came to 45.4 and the protein melting temperature (Biolog plate: PM05) was determined as 44.1.

As to `O=C(O)C(CO)OP(=O)(O)O` [D-2-Phospho-Glyceric acid], for the setting “Biolog plate: PM04A”, the protein melting temperature was found to be 44.1.

Regarding `NCCCCNCCCN` [Spermidine], the protein melting temperature (Biolog plate: PM05) stood at 41.1.

Turning to `N[C@H](Cc1ccc(OP(=O)(O)O)cc1)C(=O)O` [O-Phospho-D-Tyrosine], the protein melting temperature (Biolog plate: PM04A) came to 43.7.

For the molecule `CC(=O)N[C@@H]1C(O)O[C@H](CO)[C@@H](O)[C@@H]1O` (stereo partly drawn) [N-Acetyl-D-Mannosamine], the protein melting temperature amounted to 44.8 (Biolog plate: PM01) and 45.5 (Biolog plate: PM03B).

With `Nc1ccn([C@@H]2O[C@H](CO)[C@@H](O)[C@H]2O)c(=O)n1` [Cytidine], the protein melting temperature is, setting by setting: (Biolog plate: PM03B) 44.7; (Biolog plate: PM05) 43.9.

With `O=C[C@@H](O)[C@H](O[C@@H]1O[C@H](CO)[C@H](O)[C@H](O)[C@H]1O)[C@H](O)CO` [3-O-b-D-Galactopyranosyl-D-Arabinose], the protein melting temperature (Biolog plate: PM02A) was determined as 44.5.

Take `NCCCC(=O)O` [g-Amino-N-Butyric acid]: the protein melting temperature runs as follows: (Biolog plate: PM02A) 44.4; (Biolog plate: PM03B) 44.

Turning to `NCCS(=O)O` [Hypotaurine], the protein melting temperature (Biolog plate: PM04A) amounted to 44.5.

As to `NCCCCCC(=O)O` [e-Amino-N-Caproic acid], for the setting “Biolog plate: PM03B”, the protein melting temperature is 44.4.

With `NCC(=O)N[C@@H](CC(N)=O)C(=O)O` [Gly-Asn], where the note is “Biolog plate: PM03B”, the protein melting temperature was found to be 44.5.

As to `OC[C@H]1O[C@@H](O[C@H]2[C@H](O)[C@@H](O)[C@H](O[C@H]3[C@H](O)[C@H](O)[C@H](O[C@@H]4[C@H](O)[C@H](O)[C@H](O)O[C@@H]4CO)O[C@@H]3CO)O[C@@H]2CO)[C@@H](O)[C@@H](O)[C@@H]1O` [Mannan], where the note is “Biolog plate: PM02A”, the protein melting temperature was 44.8.

For the molecule `CCCCN` [N-Butylamine], the protein melting temperature (Biolog plate: PM03B) stood at 45.3.

With `Nc1nc2c(ncn2[C@@H]2O[C@H](CO)[C@@H](O)[C@H]2OP(=O)(O)O)c(=O)[nH]1` [Guanosine 2`-Monophosphate], under “Biolog plate: PM04A”, the protein melting temperature came to 44.

In the case of `C[C@H](N)C(=O)N[C@@H](CCC(=O)O)C(=O)O` [Ala-Glu], where the note is “Biolog plate: PM03B”, the protein melting temperature came out at 45.2.

For `O=C(O)CC(O)C(=O)O` (racemic) [DL-Malic acid], the protein melting temperature (Biolog plate: PM01) worked out at 44.5.

For the molecule `O=C(O)CC[C@@H](C(=O)O)N1C(=O)c2ccccc2C1=O` [N-Phthaloyl-L-Glutamic acid], where the note is “Biolog plate: PM03B”, the protein melting temperature worked out at 44.9.

Consider `CC(O)(CC(=O)O)C(=O)O` (stereo unspecified) [Citramalic acid], for which the protein melting temperature (Biolog plate: PM02A) came out at 44.1.

As for `O=C(O)CCC(=O)O` [Succinic acid], for the setting “Biolog plate: PM01”, the protein melting temperature is 44.5.

As for `CS(=O)(=O)O` [Methane Sulfonic acid], the protein melting temperature (Biolog plate: PM04A) turned out to be 44.4.

Take `CCCCCCCCCC(=O)O` [Capric acid]: the protein melting temperature (Biolog plate: PM02A) is 42.4.

For the molecule `O=c1[nH]cnc2c1ncn2[C@H]1C[C@H](O)[C@@H](CO)O1` [2`-Deoxyinosine], where the note is “Biolog plate: PM05”, the protein melting temperature was found to be 43.9.

Consider `O=C(O)[C@@H](O)[C@H](O)[C@H](O)[C@@H](O)C(=O)O` [Mucic acid], for which, for the setting “Biolog plate: PM01”, the protein melting temperature came to 43.7.

Regarding `NCCS(=O)(=O)O` [Taurine], the protein melting temperature (Biolog plate: PM04A) was found to be 44.2.

Regarding `NCCO` [Ethanolamine], under “Biolog plate: PM03B”, the protein melting temperature was 44.4.

Regarding `CC(=O)C(C)=O` [2,3-Butanedione], the protein melting temperature (Biolog plate: PM02A) came out at 43.9.

`C[C@H](O)[C@@H](O)[C@@H](O)[C@H](O)C=O` [L-Fucose]: under “Biolog plate: PM01”, the protein melting temperature was found to be 44.7.

For `NC(=O)c1[nH]cnc1N` [(5) 4-Amino-Imidazole-4(5)-Carboxamide], the protein melting temperature (Biolog plate: PM05) is 43.7.

As for `O=C(O)c1ccc(O)cc1` [4-Hydroxybenzoic acid], the protein melting temperature (Biolog plate: PM02A) is 43.3.

In the case of `OC[C@@H](O)[C@@H](O[C@@H]1O[C@H](CO)[C@H](O)[C@H](O)[C@H]1O)[C@H](O)[C@@H](O)CO` [D-Lactitol], where the note is “Biolog plate: PM02A”, the protein melting temperature turned out to be 44.7.

For the molecule `O[C@@H]1[C@H](O)[C@H](O)CO[C@H]1O` [D-Ribose], the protein melting temperature (Biolog plate: PM01) was 44.2.

Turning to `Cc1ncc(CO)c(C=O)c1O` [Pyridoxal], for the setting “Biolog plate: PM05”, the protein melting temperature was found to be 43.2.

For the molecule `CO[C@@H]1O[C@H](C(=O)O)[C@@H](O)[C@H](O)[C@H]1O` [b-Methyl-D-Glucuronic acid], the protein melting temperature (Biolog plate: PM02A) is 44.1.

Consider `OC[C@H]1OC(O)[C@@H](O)[C@@H](O)[C@@H]1O` (stereo partly drawn) [D-Mannose], for which the protein melting temperature (Biolog plate: PM01) came to 44.2.

On to `N[C@@H]1C(O)O[C@H](CO)[C@@H](O)[C@@H]1O` (stereo partly drawn) [D-Mannosamine], for which the protein melting temperature (Biolog plate: PM03B) turned out to be 44.6.

Regarding `OC[C@H]1O[C@@H](Oc2ccc(O)cc2)[C@H](O)[C@@H](O)[C@@H]1O` [Arbutin], the protein melting temperature (Biolog plate: PM02A) worked out at 43.7.
